Laboratory results published in US20230052453A1, “COMPOSITIONS AND METHODS FOR RELIEVING EFFECTS OF ALCOHOL CONSUMPTION” (MOXY DISTRIBUTION, INC., priority 2021, published 2023).

Assays:
[1] = Blood alcohol content (BAC) of participants after alcoholic drinks; type: in vivo, human; settings: half dose 30 minutes prior to drinking
Description: Participants were also administered a verbal processing test.
The differential in blood alcohol content between the participants receiving DHM and nicotinamide mononucleotide and emoxypine succinate and the participants in control group were substantial as show in Table 1.

[2] = cited from earlier work
[3] = test system: alcohol dehydrogenase (ADH) and acetaldehyde dehydrogenase (ALDH); settings: cited from earlier work

## O=C1c2c(O)cc(O)cc2O[C@H](c2cc(O)c(O)c(O)c2)[C@H]1O [DHM, (2R,3R)-3,5,7-trihydroxy-2-(3,4,5-trihydroxyphenyl)-2,3-dihydrochromen-4-one]
[1]; elapsed time 00 h 15 m, cumulative drinks 1
  MEAN BAC LEVELS: 0.022%
[1]; elapsed time 00 h 45 m, cumulative drinks 2
  MEAN BAC LEVELS: 0.051%
[1]; elapsed time 01 h 15 m, cumulative drinks 3
  MEAN BAC LEVELS: 0.062%
[1]; elapsed time 01 h 45 m, cumulative drinks 4
  MEAN BAC LEVELS: 0.087%
[1]; elapsed time 02 h 15 m, cumulative drinks 5
  MEAN BAC LEVELS: 0.109%
[1]; elapsed time 02 h 45 m, cumulative drinks 6
  MEAN BAC LEVELS: 0.131%
[2]; after oral administration at a dose of 20 mg/kg
  time required to reach peak plasma concentration: 2.67 h
[2]; rats, oral
  bioavailability after oral administration: 4.02%
[3]; by increasing the activities of ADH and ALDH
  alcohol (EtOH) elimination: promotes alcohol (EtOH) elimination
[3]; in vivo
  alcohol-induced liver injuries: ameliorates alcohol-induced liver injuries
